Results reported in publication PMC12616682, “Identification of a Highly Cooperative PROTAC Degrader Targeting GTP-Loaded KRAS(On) Alleles” (Journal of the American Chemical Society, 2025).
Entries after “also recorded” stand apart in the source; their conditions may differ. Where two headings read alike, the source gives them in different places.

What was measured:
[1] = target: T1, HiBiT-KRAS^G12R in Cal-62 cells (Homo sapiens, UniProt P01116, G12R); experiment: Kinetic degradation (live mode), Cal-62 HiBiT KRAS^G12R cells; type: cell-based; conditions: Cal62-HiBit (G12R)
T1 construct: generated a HiBiT-KRAS^G12R Cal-62 knock-in cell line using the CRISPR Cas9 technology; endogenous in cells; host or cells: Cal-62 HiBiT KRAS G12R (in-house CRISPR knock-in)

Cal-62 cells [2] = experiment: Whole cell proteomics MS analysis of Cal-62 cells; type: cell-based, human; conditions: 1 µM, 6 h, FDR<0.05
[3] = test system: HiBiT-tagged KRAS mutants in GP5d cells; experiment: Degradation of retrovirally transduced HiBiT-tagged KRAS mutants in GP5d cells; type: cell-based, human; conditions: 18 h
KRAS^Q61L in SW948 cells = target: T2, KRAS^Q61L in SW948 cells (Homo sapiens, UniProt P01116, Q61L); experiment: Endogenous KRAS degradation by Western blot in SW948 cells; type: cell-based
T2 construct: host or cells: SW948

[4] = target: T3, KRAS^G12R in Cal-62 cells (Homo sapiens, UniProt P01116, G12R); experiment: Endogenous KRAS degradation by Western blot in Cal-62 cells; type: cell-based; conditions: Cal-62 (G12R)
T3 construct: Potent degradation of endogenous KRAS^G12R was achieved by ACBI4 in the Cal-62 cell line; host or cells: Cal-62

[5] = target: T4, KRAS^Q61K in Calu-6 cells (Homo sapiens, UniProt P01116, Q61K); experiment: Endogenous KRAS degradation by Western blot in Calu-6 cells; type: cell-based; conditions: Calu-6 (Q61K)
T4 construct: host or cells: Calu-6

NRAS in Cal-62 cells = NRAS in Cal-62 cells (Homo sapiens, UniProt P01111); experiment: Western blot of NRAS levels in Cal-62 cells
NRAS in Cal-62 cells, sequence (P01111 whole entry): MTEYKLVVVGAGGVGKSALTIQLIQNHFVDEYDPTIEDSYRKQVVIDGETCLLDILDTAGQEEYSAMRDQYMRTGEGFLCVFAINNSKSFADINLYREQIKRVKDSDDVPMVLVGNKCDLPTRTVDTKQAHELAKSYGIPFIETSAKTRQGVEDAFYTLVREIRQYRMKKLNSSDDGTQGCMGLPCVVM

[6] = target: T5, HiBiT-KRAS^G12D in GP5d cells (Homo sapiens, UniProt P01116, G12D); experiment: HiBiT degradation assay, HiBiT-KRAS^G12D GP5d cells; type: cell-based; conditions: Gp5D (HiBit-G12D)
T5 construct: host or cells: GP5d HiBiT KRAS G12D

KRAS^G12R in KP-2 cells = target: T6, KRAS^G12R in KP-2 cells (Homo sapiens, UniProt P01116, G12R); experiment: Endogenous KRAS degradation by Western blot in KP-2 cells; type: cell-based; conditions: KP-2 (G12R)
T6 construct: host or cells: KP-2

HRAS in Cal-62 cells = HRAS in Cal-62 cells (Homo sapiens, UniProt P01112); experiment: Western blot of HRAS levels in Cal-62 cells
HRAS in Cal-62 cells, sequence (P01112 whole entry): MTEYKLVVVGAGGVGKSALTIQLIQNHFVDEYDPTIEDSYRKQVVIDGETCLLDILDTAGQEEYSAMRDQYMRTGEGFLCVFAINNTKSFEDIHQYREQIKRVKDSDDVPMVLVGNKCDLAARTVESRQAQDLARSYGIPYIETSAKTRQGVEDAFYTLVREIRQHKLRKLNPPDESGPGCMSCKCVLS

[7] = target: T1, HiBiT-KRAS^G12R in Cal-62 cells; experiment: HiBiT degradation assay, HiBiT-KRAS^G12R Cal-62 cells; type: cell-based; conditions: Cal-62 (HiBitG12R)
Description: (Gibco) with 10% FBS in a humidiﬁed cell incubator at 37 °C and 5% CO2.
Plasmids pSpCas9 BB-2A-GFP (PX458) containing gRNA, Cas9 and GFP sequences and […] plasmid containing ssDNA donor template were purchased from Genscript. Cal-62 cells were plated at 5x10^5 cells in a 6-well plate and left to adhere overnight. The next day, the transfection plasmids (0.5 µg of each gRNA plasmid and 0.5 µg of donor template) were diluted in Opti-MEM, combined with Lipofectamine solution in Opti-mem according to the manufacturer’s protocol and incubated for 20 min at RT. The mixture was added to the cells and incubated for 24 h. The next day the media was exchanged, and the cells were left to incubate for another 24 h. GFP positive cells were single-cell sorted into 96-well plates using ﬂuorescence-activated cell sorting (FACS) at the Flow Cytometry and Cell Sorting Facility (University of Dundee). Sorted cells were left to grow in conditioned media supplemented with 20% FBS for 3 weeks. Formed colonies were tested for the expression of HiBiT KRAS using the Nano-Glo® HiBiT Lytic system (Promega). The positive clones were additionally tested for insertion of the HiBiT tag by western blotting for KRAS (mouse anti-KRAS, LsBio) and HiBiT (mouse anti-HiBiT, Promega) and the insert was further conﬁrmed by Sanger sequencing. […]
gRNA1: 5’ […] 3’, gRNA2: 5’ […] 3’, gRNA 3: 5’ […]
template DNA: 5’ caatccagctt tatttgacac tcattctctc aactctcatc tgattcttac tgttaatatt tatccaagag aactactgcc atgatgcttt aaaagttttt ctgtagctgt tgcatattga cttctaacac ttagaggtgg gggtccacta ggaaaactgt aacaataaga gtggagatag ctgtcagcaa cttttgtgag ggtgtgctac agggtgtaga gcactgtgaa gtctctacat gagtgaagtc atgatatgat cctttgagag cctttagccg ccgcagaaca gcagtctggc tatttagata gaacaacttg attttaagat aaaagaactg tctatgtagc atttatgcat ttttcttaag cgtcgatgga ggagtttgta aatgaagtac agttcattac gatacacgtc tgcagtcaac tggaattttc atgattgaat tttgtaaggt attttgaaat aatttttcat ataaaggtga gtttgtatta aaaggtactg gtggagtatt tgatagtgta ttaaccttat gtgtgacatg ttctaatata gtcacatttt cattattttt attataaggc ctgctgaaa […]
atg[…]act gaGtaCaaGctCgtAgtagttggag ctCgtggc gta ggc aag agt gcc ttA acAatCcaActaattcagaatcat tttgtggacg aatatgatcc aacaatagag gtaaatcttg ttttaatatg catattactg gtgcaggacc attctttgat acagataaag gtttctctga ccattttcat gagtacttat tacaagataa ttatgctgaa agttaagtta tctgaaatgt accttgggtt tcaagttata tgtaaccatt aatatgggaa ctttactttc cttgggagta tgtcagggtc catgatgttc actctctgtg cattttgatt ggaagtgtat ttcagagttt cgtgagaggg tagaaatttg tatcctatct ggacctaaaa gacaatcttt ttattgtaac ttttattttt atgggtttct tggtattgtg acatcatatg taaaggttag atttaattgt actagtgaaa tataattgtt tgatggttga tttttttaaa cttcatcagc agtattttcc tatcttcttc tcaacattag agaacctaca actaccggat aaattttaca aaatgaatta tttgcctaag gtgtggttta tataaaggta ctattaccaa ctttaccttt gctttgttgt catttttaaa tttactcaag gaaatactag gatttaaaaa aaaattcctt 3’
Degradation via Detection of Split Nanoluciferase (HiBiT)
To assess PROTAC-mediated degradation of HiBiT-tagged KRAS constructs, cells were seeded at […]
further incubated at 37 °C for 4 and 24 h. Following incubation, 20 µL per well of Promega Nano-Glo® HiBiT lytic detection reagent mix (Promega Nano-Glo® HiBiT Lytic Detection System […]
plotted as percent of DMSO control.

Cal-62 cells [8] = experiment: CellTiter-Glo anti-proliferation, Cal-62; type: cell-based, human; conditions: Homo sapiens, 72 h; Cal-62 (G12R); read-out: CTG 72h Ic50
KRAS^G12D in GP5d cells = target: T7, KRAS^G12D in GP5d cells (Homo sapiens, UniProt P01116, G12D); experiment: Endogenous KRAS degradation by Western blot in GP5d cells; type: cell-based
T7 construct: comparison of the degradative effect on endogenous KRAS; host or cells: GP5d

Calu-6 cells = experiment: CellTiter-Glo anti-proliferation, Calu-6; type: cell-based, human; conditions: Calu-6 (Q61K)
A375 cells = experiment: CellTiter-Glo anti-proliferation, A375 (KRAS independent); type: cell-based, human

- 1/K (Tau) [1]: 0.689 µM
- Plateau (degradation rate) [1]: 0.2774 min⁻¹
- Plateu/ Tau [1]: 6708 M⁻¹ s⁻¹
- Dmax (KRAS^Q61L in SW948 cells; 4 h, read-out: DMax 4h): 58%
- DC50 (KRAS^Q61L in SW948 cells; 4 h, read-out: Dc50 4h): 300 nM
- Dmax (KRAS^Q61L in SW948 cells; 18 h, read-out: DMax 18h): 65%
- DC50 (KRAS^Q61L in SW948 cells; 18 h, read-out: Dc50 18h): 1000 nM
- Dmax ([4]; 4 h, read-out: DMax 4h): 88%
- DC50 ([4]; 4 h, read-out: Dc50 4h): 382 nM
- Dmax ([4]; 18 h, read-out: DMax 18h): 93%
- DC50 ([4]; 18 h, read-out: Dc50 18h): 162 nM
- Dmax ([5]; 4 h, read-out: DMax 4h): 34%
- DC50 ([5]; 4 h, read-out: Dc50 4h): 274 nM
- Dmax ([5]; 18 h, read-out: DMax 18h): 68%
- DC50 ([5]; 18 h, read-out: Dc50 18h): 157 nM
- Dmax ([6]; 4 h, read-out: DMax 4h): 84%
- DC50 ([6]; 4 h, read-out: Dc50 4h): 9 nM
- Dmax ([6]; 24 h, read-out: DMax 24h): 93%
- DC50 ([6]; 24 h, read-out: Dc50 24h): 2 nM
- Dmax (KRAS^G12R in KP-2 cells; 4 h, read-out: DMax 4h): 91%
- DC50 (KRAS^G12R in KP-2 cells; 4 h, read-out: Dc50 4h): 316 nM
- Dmax (KRAS^G12R in KP-2 cells; 18 h, read-out: DMax 18h): 82%
- DC50 (KRAS^G12R in KP-2 cells; 18 h, read-out: Dc50 18h): 151 nM
- Dmax (HRAS in Cal-62 cells; CAL-62, read-out: HRAS Dmax): 72%
- window of HRAS degradation over KRAS degradation (HRAS in Cal-62 cells; Cal-62, DC50 637 nM vs 382 nM): ca. 2 fold
- DC50 (HRAS in Cal-62 cells; read-out: HRAS DC50, Cal-62 cells, 4 h, Western blot): 637 nM
- Dmax ([7]; 4 h, read-out: DMax 4h): 80%
- DC50 ([7]; 4 h, read-out: Dc50 4h): 80 nM
- Dmax ([7]; 24 h, read-out: DMax 24h): 87%
- DC50 ([7]; 24 h, read-out: Dc50 24h): 205 nM
- Dmax (KRAS^G12D in GP5d cells; 4 h, read-out: DMax 4h): 96.5%
- DC50 (KRAS^G12D in GP5d cells; 4 h, read-out: Dc50 4h): 7 nM
- Dmax (KRAS^G12D in GP5d cells; 18 h, read-out: DMax 18h): 99%
- DC50 (KRAS^G12D in GP5d cells; 18 h, read-out: Dc50 18h): 7 nM
- IC50 (A375 cells; Homo sapiens, A-375, 144 h, A375 (KRAS WT; KRAS independent), read-out: CTG 144h Ic50): > 3000 nM
SMILES: CC(C)C(C(=O)N1CC(O)CC1C(=O)NCc1ccc2cnn(C)c2c1)n1nnc2c1CCC(CCCN1CCCN(c3nccc(-c4noc(C5(C)CCCc6sc(N)c(C#N)c65)n4)n3)C(C)C1)C2 (stereo not drawn) [ACBI4]
- Log2 Difference CDKN1C (Cal-62 cells [2]; ACBI4/DMSO): 1.09
- Log2 Difference FOSL1 (Cal-62 cells [2]; ACBI4/DMSO): -0.93
- Log2 Difference G0S2 (Cal-62 cells [2]; ACBI4/DMSO): -1.35
- Log2 Difference KRAS (Cal-62 cells [2]; ACBI4/DMSO): -0.94
- Log2 Difference NRAS (Cal-62 cells [2]; ACBI4/DMSO): -1.86
- Log2 Difference RHOB (Cal-62 cells [2]; ACBI4/DMSO): 2.12
- Log2 Difference CDKN1C (Cal-62 cells [2]; ACBI4/Neg Ctr): 1.24
- Log2 Difference FOSL1 (Cal-62 cells [2]; ACBI4/Neg Ctr): -0.7
- Log2 Difference G0S2 (Cal-62 cells [2]; ACBI4/Neg Ctr): -1.11
- Log2 Difference KRAS (Cal-62 cells [2]; ACBI4/Neg Ctr): -0.79
- Log2 Difference NRAS (Cal-62 cells [2]; ACBI4/Neg Ctr): -1.48
- Log2 Difference PLAU (Cal-62 cells [2]; ACBI4/Neg Ctr): -0.73
- Log2 Difference RHOB (Cal-62 cells [2]; ACBI4/Neg Ctr): 2.07
- Log2 Difference TSPYL4 (Cal-62 cells [2]; ACBI4/Neg Ctr): 0.96
- degradation of HiBiT-tagged KRAS mutant panel (in words) [3]: induce the degradation of all KRAS alleles
- NRAS degradation (NRAS in Cal-62 cells): degradation of NRAS only at very high concentrations
- IC50 (Cal-62 cells [8]): 174 nM
- CTG 72h Ic50 (Calu-6 cells): unstable
- antiproliferative effect (in words) (A375 cells; KRAS-independent A375 cell line): No antiproliferation; also recorded: No antiproliferative effect was observed
